Here are results for 12 molecules from patent US11447466B2, “Substituted indole compounds useful as inhibitors of TLR7/8/9” (BRISTOL-MYERS SQUIBB COMPANY, priority 2017, dated 2022).

Holding throughout (type): cell-based
The target in one assay is T1, human TLR8 (Homo sapiens, UniProt Q9NR97).
T1 construct: host or cells: HEK-Blue cells
T1 sequence (Q9NR97 27-1041): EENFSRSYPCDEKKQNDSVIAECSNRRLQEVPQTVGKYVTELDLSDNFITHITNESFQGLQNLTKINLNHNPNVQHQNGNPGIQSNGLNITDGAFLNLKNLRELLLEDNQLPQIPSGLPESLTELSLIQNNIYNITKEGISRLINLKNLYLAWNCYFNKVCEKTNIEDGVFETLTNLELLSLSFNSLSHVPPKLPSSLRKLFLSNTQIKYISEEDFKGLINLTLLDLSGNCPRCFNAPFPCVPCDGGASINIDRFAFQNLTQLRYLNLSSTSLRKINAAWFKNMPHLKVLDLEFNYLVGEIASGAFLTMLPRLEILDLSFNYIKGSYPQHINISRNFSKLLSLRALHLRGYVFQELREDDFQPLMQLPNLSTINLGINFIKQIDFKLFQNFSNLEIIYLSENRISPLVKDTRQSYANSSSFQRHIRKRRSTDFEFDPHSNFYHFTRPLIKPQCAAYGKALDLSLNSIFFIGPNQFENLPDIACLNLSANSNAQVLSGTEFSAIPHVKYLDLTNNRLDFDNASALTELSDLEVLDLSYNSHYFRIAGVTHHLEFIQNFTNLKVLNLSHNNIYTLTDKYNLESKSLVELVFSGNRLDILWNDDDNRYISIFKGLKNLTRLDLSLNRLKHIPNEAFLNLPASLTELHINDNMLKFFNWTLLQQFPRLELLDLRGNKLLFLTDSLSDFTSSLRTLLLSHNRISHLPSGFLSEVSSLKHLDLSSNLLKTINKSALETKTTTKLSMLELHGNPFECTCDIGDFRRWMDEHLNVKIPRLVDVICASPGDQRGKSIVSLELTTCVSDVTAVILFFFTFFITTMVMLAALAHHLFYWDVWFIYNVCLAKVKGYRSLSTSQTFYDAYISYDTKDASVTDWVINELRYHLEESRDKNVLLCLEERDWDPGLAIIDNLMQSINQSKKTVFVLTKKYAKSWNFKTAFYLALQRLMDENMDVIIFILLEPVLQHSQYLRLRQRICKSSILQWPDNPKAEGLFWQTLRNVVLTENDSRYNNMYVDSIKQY
Put plainly: TLR8 inhibition reporter assay (HEK-Blue SEAP reporter, R848 stimulation). Conditions: HEK-Blue cells overexpressing human TLR8, SEAP reporter, R848 15.9 μM, 22 hour incubation. In a few lines:
(§1)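 Compound treatment: 30 min, RT, 0.05 nM–50 μM final. Agonist: TLR7 gardiquimod 7.5 μM; TLR8 R848 15.9 μM; TLR9 ODN2006 5 nM. Incubation 22 h, 37 °C, 5% CO2. Readout SEAP, HEK-Blue Detection.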

In the next assay the target is T2, human TLR9 (Homo sapiens, UniProt Q9NR96).
T2 construct: host or cells: HEK-Blue cells
T2 sequence (Q9NR96 26-1032): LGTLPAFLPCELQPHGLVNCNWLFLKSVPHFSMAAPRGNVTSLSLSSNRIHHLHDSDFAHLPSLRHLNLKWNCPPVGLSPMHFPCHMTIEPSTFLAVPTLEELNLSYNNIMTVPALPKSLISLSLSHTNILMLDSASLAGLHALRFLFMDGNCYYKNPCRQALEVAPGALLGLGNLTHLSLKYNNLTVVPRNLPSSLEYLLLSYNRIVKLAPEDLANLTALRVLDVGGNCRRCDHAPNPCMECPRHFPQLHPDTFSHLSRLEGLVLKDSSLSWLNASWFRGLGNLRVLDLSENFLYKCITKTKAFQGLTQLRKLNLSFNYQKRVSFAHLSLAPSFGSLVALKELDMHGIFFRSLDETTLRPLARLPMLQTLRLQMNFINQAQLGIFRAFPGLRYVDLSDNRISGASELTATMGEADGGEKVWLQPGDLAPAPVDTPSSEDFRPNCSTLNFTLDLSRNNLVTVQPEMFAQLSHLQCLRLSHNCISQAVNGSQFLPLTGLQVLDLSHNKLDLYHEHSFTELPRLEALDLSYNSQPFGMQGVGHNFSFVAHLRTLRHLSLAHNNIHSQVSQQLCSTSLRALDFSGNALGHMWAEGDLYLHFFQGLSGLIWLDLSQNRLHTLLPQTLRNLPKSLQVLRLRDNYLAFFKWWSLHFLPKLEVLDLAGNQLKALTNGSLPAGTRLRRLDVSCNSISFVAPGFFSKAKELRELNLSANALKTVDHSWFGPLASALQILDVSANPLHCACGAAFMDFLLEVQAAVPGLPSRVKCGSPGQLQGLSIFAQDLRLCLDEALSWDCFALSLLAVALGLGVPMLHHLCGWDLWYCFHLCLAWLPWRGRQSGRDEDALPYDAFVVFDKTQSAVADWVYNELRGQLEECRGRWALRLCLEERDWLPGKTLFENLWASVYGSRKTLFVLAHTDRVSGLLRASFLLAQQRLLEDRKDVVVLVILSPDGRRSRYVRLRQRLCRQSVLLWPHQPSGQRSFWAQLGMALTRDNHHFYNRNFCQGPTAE
Briefly: TLR9 inhibition reporter assay (HEK-Blue SEAP reporter, ODN2006 stimulation). Conditions: HEK-Blue cells overexpressing human TLR9, SEAP reporter, ODN2006 5 nM, 22 hour incubation. The essentials:
as §1

Another assay has as its target T3, human TLR7 (Homo sapiens, UniProt Q9NYK1).
T3 construct: host or cells: HEK-Blue cells
T3 sequence (Q9NYK1 27-1049): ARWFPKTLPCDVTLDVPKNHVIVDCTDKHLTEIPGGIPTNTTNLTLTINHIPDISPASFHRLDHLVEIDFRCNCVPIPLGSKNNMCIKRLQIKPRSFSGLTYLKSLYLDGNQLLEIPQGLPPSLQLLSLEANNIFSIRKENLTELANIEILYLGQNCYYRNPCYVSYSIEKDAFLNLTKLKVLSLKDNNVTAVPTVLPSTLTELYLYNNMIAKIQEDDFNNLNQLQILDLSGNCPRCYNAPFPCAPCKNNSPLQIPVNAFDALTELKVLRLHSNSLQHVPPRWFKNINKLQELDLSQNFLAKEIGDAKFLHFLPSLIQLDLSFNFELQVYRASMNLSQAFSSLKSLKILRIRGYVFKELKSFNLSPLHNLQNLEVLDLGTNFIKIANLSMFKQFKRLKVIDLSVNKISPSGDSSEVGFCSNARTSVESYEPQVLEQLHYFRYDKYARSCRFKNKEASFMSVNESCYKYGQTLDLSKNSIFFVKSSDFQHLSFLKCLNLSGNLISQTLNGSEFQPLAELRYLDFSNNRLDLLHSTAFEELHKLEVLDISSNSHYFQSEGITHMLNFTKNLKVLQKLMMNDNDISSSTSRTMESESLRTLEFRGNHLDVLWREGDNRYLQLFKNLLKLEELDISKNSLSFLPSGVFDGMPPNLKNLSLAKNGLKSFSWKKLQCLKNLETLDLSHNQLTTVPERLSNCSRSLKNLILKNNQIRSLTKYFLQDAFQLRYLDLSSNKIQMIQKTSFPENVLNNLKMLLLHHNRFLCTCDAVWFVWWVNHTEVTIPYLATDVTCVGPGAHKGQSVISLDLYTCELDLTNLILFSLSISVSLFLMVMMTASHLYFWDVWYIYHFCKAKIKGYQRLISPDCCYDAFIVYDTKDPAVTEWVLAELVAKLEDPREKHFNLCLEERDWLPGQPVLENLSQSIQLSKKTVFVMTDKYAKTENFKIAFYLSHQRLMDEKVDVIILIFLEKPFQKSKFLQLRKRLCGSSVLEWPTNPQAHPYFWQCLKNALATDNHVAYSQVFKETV
Put plainly: TLR7 inhibition reporter assay (HEK-Blue SEAP reporter, gardiquimod stimulation). Conditions: HEK-Blue cells overexpressing human TLR7, SEAP reporter, gardiquimod 7.5 μM, 22 hour incubation. The essentials: as §1

The structures appear in SMILES notation. pIC50: −log10 of the molar value. Where only a bound is given, the exact number is not on record here.

For `Cc1cc(-c2[nH]c3ccc(C4CCN(CC(=O)NCC(C)(C)O)CC4)cc3c2C(C)C)cn(C)c1=O` [Example 124, 2-(4-(2-(1,5-dimethyl-6-oxo-1,6-dihydropyridin-3-yl)-3-isopropyl-1H-indol-5-yl)piperidin-1-yl)-N-(2-hydroxy-2-methylpropyl)acetamide], the pIC50 is 7.95 against human TLR8, not above 4.30 against human TLR9 and 8.01 on human TLR7.
In the same order, the values of `CCn1cc(-c2[nH]c3ccc(C4CCN(CC(=O)N(C)C)CC4)cc3c2C(C)C)cc(C)c1=O` [Example 133, 2-(4-(2-(1-ethyl-5-methyl-6-oxo-1,6-dihydropyridin-3-yl)-3-isopropyl-1H-indol-5-yl)piperidin-1-yl)-N,N-dimethylacetamide] are 8.21, 4.83 and 7.62.
For the molecule `Cc1c(-c2[nH]c3ccc(C4CCN(C(C)C)CC4)cc3c2C(C)C)cn(C)c(=O)c1C` [Example 212, 5-(3-isopropyl-5-(1-isopropylpiperidin-4-yl)-1H-indol-2-yl)-1,3,4-trimethylpyridin-2(1H)-one], the negative-log IC50 (pIC50) on human TLR8 is 7.76; at human TLR9 it was 4.90; on human TLR7, 7.77.
In the same order, the values of `Cc1cc(-c2[nH]c3ccc(C4CCN(CCC(C)(C)O)CC4)cc3c2C(C)C)c(C)n(C)c1=O` [Example 74, 5-(5-(1-(3-hydroxy-3-methylbutyl)piperidin-4-yl)-3-isopropyl-1H-indol-2-yl)-1,3,6-trimethylpyridin-2(1H)-one] are 8.31, 5.36 and 7.68.
On to `Cc1cc(-c2[nH]c3ccc(C4CCN(Cc5ncn(C)n5)CC4)cc3c2C(C)C)cn(C)c1=O` [Example 72, 5-(3-isopropyl-5-(1-((1-methyl-1H-1,2,4-triazol-3-yl)methyl)piperidin-4-yl)-1H-indol-2-yl)-1,3-dimethylpyridin-2(1H)-one], for which the negative logarithm of the IC50 (pIC50) against human TLR8 is 7.76; on human TLR9 it was not above 4.30; at human TLR7, 7.66.
As to `Cc1cc(-c2[nH]c3ccc(C4CCN(C5CCCOC5)CC4)cc3c2C(C)C)nn(C)c1=O` (stereo not drawn) [Example 188, 6-(3-isopropyl-5-(1-(tetrahydro-2H-pyran-3-yl)piperidin-4-yl)-1H-indol-2-yl)-2,4-dimethylpyridazin-3(2H)-one], the pIC50 against human TLR8 was 7.95; against human TLR9, 6.28; on human TLR7, 7.85.
Consider `CC(C)c1c(-c2cn(C)c(=O)n(C)c2=O)[nH]c2ccc(C3CCNCC3)cc12` [Example 21, 5-(3-isopropyl-5-(piperidin-4-yl)-1H-indol-2-yl)-1,3-dimethylpyrimidine-2,4(1H,3H)-dione], for which the negative-log IC50 (pIC50) was 6.58 against human TLR8, 5.18 on human TLR9 and 6.98 against human TLR7.
For the molecule `Cc1c(-c2[nH]c3ccc(C4CCN(CC5CCCO5)CC4)cc3c2C(C)C)cn(C)c(=O)c1Cl` (stereo not drawn) [Example 250, 3-chloro-5-(3-isopropyl-5-(1-((tetrahydrofuran-2-yl)methyl)piperidin-4-yl)-1H-indol-2-yl)-1,4-dimethylpyridin-2(1H)-one], the negative logarithm of the IC50 (pIC50) at human TLR8 was 8.32; at human TLR9 it was 5.52; against human TLR7, 8.20.
In the same order, the values of `CC(C)CN1CCC(c2ccc3[nH]c(-c4cc(-c5ccccc5)c(=O)n(C)c4)c(C(C)C)c3c2)CC1` [Example 89, 5-(5-(1-isobutylpiperidin-4-yl)-3-isopropyl-1H-indol-2-yl)-1-methyl-3-phenylpyridin-2(1H)-one] are 8.35, 5.71 and 7.77.
On to `Cc1cc(-c2[nH]c3ccc(C4CCN(C(C)C)CC4)cc3c2C(C)C)nn(C)c1=O` [Example 192, 6-(3-isopropyl-5-(1-isopropylpiperidin-4-yl)-1H-indol-2-yl)-2,4-dimethylpyridazin-3(2H)-one], for which the pIC50 against human TLR8 is 7.92; against human TLR9, 5.55; against human TLR7, 8.19.
In the same order, the values of `Cc1c(-c2[nH]c3ccc(C4CCN(C(=O)CN(C)C)CC4)cc3c2C(C)C)cc(C#N)c(=O)n1C` [Example 273, 5-(5-(1-(dimethylglycyl)piperidin-4-yl)-3-isopropyl-1H-indol-2-yl)-1,6-dimethyl-2-oxo-1,2-dihydropyridine-3-carbonitrile] are 7.80, 5.68 and 7.04.
`Cc1c(-c2[nH]c3ccc(C4CCN(C(=O)CN(C)C)CC4)cc3c2C(C)C)cn(C)c(=O)c1Cl` [Example 278, 3-chloro-5-(5-(1-(dimethylglycyl)piperidin-4-yl)-3-isopropyl-1H-indol-2-yl)-1,4-dimethylpyridin-2(1H)-one]: the negative logarithm of the IC50 (pIC50) is 7.68 at human TLR8, 5.49 against human TLR9 and 8.28 against human TLR7.
